Patent publication US6432978B1, “SF2809-I,II,III,IV,V and VI substances exhibiting chymase-inhibiting activities” (Meiji Seika Kaisha, Ltd., priority 1998, dated 2002)

Columns and labels:
[1] = Solubility (physicochemical properties); settings: in methanol, ethyl acetate, dimethylsulfoxide, chloroform, hexane and water; result in words
[2] = target: T1, human chymase (Homo sapiens, UniProt P23946); experiment: Determination of chymase-inhibiting activity (Test Example 1); format: biochemical; settings: activated human recombinant chymase; substrate succinyl-alanyl-histidyl-prolyl-phenylalanyl-para-nitroanilide; buffer pH 8.0; room temperature, 5 minutes; absorbance at 405 nm; read-out: 50% inhibitory concentrations (IC50) against the human chymase
T1 construct: made in house; host or cells: insect cells (Tn5) infected with recombinant baculovirus
T1 sequence (P23946 22-247): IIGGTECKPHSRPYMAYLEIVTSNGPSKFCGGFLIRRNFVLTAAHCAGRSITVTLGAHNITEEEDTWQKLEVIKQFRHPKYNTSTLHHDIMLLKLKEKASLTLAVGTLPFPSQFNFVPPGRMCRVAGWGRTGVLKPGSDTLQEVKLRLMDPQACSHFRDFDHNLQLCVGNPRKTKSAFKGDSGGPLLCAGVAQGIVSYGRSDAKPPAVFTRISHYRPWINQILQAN
Protocol: In this Example, the chymase-inhibiting activity of SF2809 substances was determined as described below.
A human recombinant chymase was prepared in accordance with the method of Urata et al's report (Urata et al., J. Biol. Chem., Vol. 266, p.17173, 1991). Thus, cultivation was made of insect cells (Tn5) which had been infected with recombinant baculovirus containing therein such cDNA that encodes the human chymase. The resulting culture of the insect cells was filtered and the resultant supernatant was treated with Heparin-sepharose (Pharmacia's product) to recover the chymase. The chymase so recovered was then purified. Then, the purified chymase was activated in accordance with the method of Murakami et al's report (Murakami et al, J. Biol. Chem., Vol. 270, p.2218, 1991), after which the activated chymase was purified with Heparin-sepharose to afford an activated type of human chymase.
To 50 μl of a buffer A (comprising 0.5˜3.0 M NaCl, 50 mM tris hydrochloric acid, pH 8.0) which contained 1˜5 ng of the active-type of human chymase as prepared in (1) above, there was added 2 μl of a solution in dimethylsulfoxide (DMSO) of an SF2809 substance as the test substance. Then, to the resulting mixture, there was added 50 μl of a buffer A which contained 0.5 mM of succinyl-alanyl-histidyl-prolyl-phenylalanyl-para-nitroanilide (Buckem's product) as a substrate. The resultant admixture was incubated at room temperature for 5 minutes. The change in the absorbance at 405 nm of the reaction solution was measured with passage of the incubation time, thereby to examine the chymase-inhibiting activity of the SF2809 substance under test.

Row | Compound | IC50 [2] | Solubility [1]
1 | CC(=O)NCCc1c(C(c2ccc(O)cc2)c2c(O)c3ccccc3n(C)c2=O)[nH]c2ccccc12 (stereo not drawn) [SF2809-II substance] | 41 nM | Soluble in methanol, ethyl acetate and dimethylsulfoxide; sparingly soluble in chloroform; and insoluble in hexane and water
2 | Cn1c(=O)c(C(c2ccc(O)cc2)c2[nH]c3ccccc3c2CCO)c(O)c2ccccc21 (stereo not drawn) [SF2809-IV substance] | 81 nM | Soluble in methanol, ethyl acetate and dimethylsulfoxide; sparingly soluble in chloroform; and insoluble in hexane and water
3 | CC(=O)NCCc1c(C(c2ccccc2)c2c(O)c3ccccc3n(C)c2=O)[nH]c2ccccc12 (stereo not drawn) [SF2809-V substance] | 43 nM | Soluble in methanol, ethyl acetate, dimethylsulfoxide and chloroform; and insoluble in hexane and water

Now from value to compound, other results behind:

Row | IC50 [2] | Compound | Solubility [1]
4 | 7300 nM | CC(=O)NCCc1c(Cc2c(O)c3ccccc3n(C)c2=O)[nH]c2ccccc12 [SF2809-I substance] | Soluble in methanol, ethyl acetate and dimethylsulfoxide; sparingly soluble in chloroform; and insoluble in hexane and water
5 | 2100 nM | Cn1c(=O)c(Cc2[nH]c3ccccc3c2CCO)c(O)c2ccccc21 [SF2809-III substance] | Soluble in methanol, ethyl acetate and dimethylsulfoxide; sparingly soluble in chloroform; and insoluble in hexane and water
6 | 14 nM | Cn1c(=O)c(C(c2ccccc2)c2[nH]c3ccccc3c2CCO)c(O)c2ccccc21 (stereo not drawn) [SF2809-VI substance] | Soluble in methanol, ethyl acetate, dimethylsulfoxide and chloroform; and insoluble in hexane and water
